# In patent US20260265199A1, “CRYSTALLINE FORMS OF (R)-2-AMINO-5-(4-(2-(3,5-DIFLUOROPHENYL)-2-HYDROXYACETAMIDO)-2-METHYLPHENYL)-N-ISOPROPYLNICOTINAMIDE AND METHODS FOR USING THE SAME” (HIBERCELL, INC., priority 2023, published 2026):
# Structures can show the parent of a compound that is named as a salt. Where two headings read alike, the source gives them in different places.
# How the values were obtained:
# Format in all cases: physicochemical
# [1] = Physical stability under high humidity (92.5% RH); conditions: 11 days
# Method: The physical stability of the Form A of the hemi-fumarate salt was evaluated under high humidity (92.5% RH) for 11 days.
# [2] = Mechanical treatment (manual grinding) of Form A of the hemi-fumarate salt
# Method: Appropriate amount of the Form A of the hemi-fumarate salt was ground for about two and five minutes manually and the samples were analyzed by XRPD (Example 1, XRPD). […] The crystallinity became low after grinding for five minutes. Solubility of the Form A of the Hemi-Fumarate Salt of the Compound of Formula (I) in Biologically Relevant Media
# [3] = Physical and chemical stability at 40° C. (75% RH) and 60° C. (XRPD, HPLC); conditions: for Physical and chemical stability / XRPD - 29 days / Purity (%) - 29 days: 29 days
# Method: (§1) HPLC analysis was performed with an Agilent HPLC 1260 series instrument.
# Appropriate amount of the Form A of the hemi-fumarate salt was placed at 40° C. (75% RH) and 60° C. for several days. The solids were analyzed by XRPD (Example 1, XRPD) and HPLC (Example 1, HPLC) at appropriate time points. The physical and chemical stabilities of the Form A of the hemi-fumarate salt was conducted at 60° C. and at 40° C. (75% RH) for 29 days. No obvious degradation occurred and no form change was observed under testing conditions. […] (75% RH) for 29 days.
# [4] = Slurry study of Form A of the hemi-fumarate salt (XRPD of solids); conditions: room temperature, three days (footnote *)
# [5] = as above
# Method: XRPD patterns of samples were collected using with an X-ray diffractometer (Bruker D8 advance). The system was equipped with LynxEye detector. Samples were scanned from 3 to 40° 2θ, at a step size 0.02° 2θ. The tube voltage and current were 40 KV and 40 mA, respectively.
# Slurry studies of the Form A of the hemi-fumarate salt were conducted at room temperature for four days and at 50° C. for one day. About 10 mg to 35 mg of the Form A of the hemi-fumarate salt was slurried in different solvents at RT or 50° C. for one to four days. Solid samples were collected by filtration and analyzed by XRPD (Example 1, XRPD) at a specific time. […] The overlay of XRPD patterns from the slurry study of the Form A of the hemi-fumarate salt of the compound of formula (I) is depicted in FIG. 11.
# [6] = Inter-conversion study (competitive slurry) of hemi-fumarate Form A and Form B in IPA; conditions: RT and 50° C.
# Method: Equal amount of the Form A of the hemi-fumarate salt and the Form B of the hemi-fumarate salt were added into IPA, and the suspensions were stirred at RT or 50° C. for 3 days, respectively. Residual solids were obtained and characterized. […] The overlay of the XRPD pattern from the inter-conversion study of the hemi-fumarate salt is depicted in FIG. 15.
# [7] = Solubility in water and biologically relevant media (SGF, FeSSIF, FaSSIF), HPLC, pH, XRPD; conditions: 37° C.; for XRPD of the filter cake: 24 h
# Method: as §1
# The solubility of the Form A of the hemi-fumarate salt was evaluated in water and biologically relevant media, SGF, FeSSIF, and FaSSIF. About 10 mg of the sample was weighed into sample vials and then 2 mL of three bio-relevant media and water were added to each respective sample to make suspensions. All suspensions were shaken at 37° C. with 200 rpm. […] The XRPD pattern from the solubility test of the Form A of the hemi-fumarate salt of the compound of formula (I) is depicted in FIG. 12.
# [8] = Solubility of hemi-fumarate Form A by visual assessment upon solvent addition
# Method: The solubility of the Form A of the hemi-fumarate salt was evaluated by visual assessment of samples upon solvent addition, employing organic solvents and water. Among the solvents, the Form A of the hemi-fumarate salt had the highest solubility in THF, MeOH, EtOH and acetone (>50 mg/mL).
compound,measurement,setting,value
"Cc1cc(NC(=O)[C@H](O)c2cc(F)cc(F)c2)ccc1-c1cnc(N)c(C(=O)NC(C)C)c1 [Form A of the hemi-fumarate salt, (R)-2-amino-5-(4-(2-(3,5-difluorophenyl)-2-hydroxyacetamido)-2-methylphenyl)-N-isopropylnicotinamide]",Physical stability (form by XRPD),[1],No form change was detected
same,Crystallinity after manual grinding,[2]; grinding for five minutes,became low
same,XRPD form after manual grinding,[2]; ground for about two and five minutes manually,remained unchanged and no new form was obtained by grinding
same,Purity (%) - 8 days,"[3]; 40° C. (75% RH), HPLC",99.86%
same,Physical and chemical stability,[3]; 40° C. (75% RH),physically and chemically stable
same,XRPD - 29 days,[3]; 40° C. (75% RH),No Change
same,Purity (%) - 29 days,"[3]; 40° C. (75% RH), HPLC",99.92%
same,Purity (%) - 8 days,"[3]; 60° C., HPLC",99.86%
same,Physical and chemical stability,[3]; 60° C.,physically and chemically stable
same,XRPD - 29 days,[3]; 60° C.,No Change
same,Purity (%) - 29 days,"[3]; 60° C., HPLC",99.91%
same,Purity (%),"[3]; Starting material (before storage), HPLC",99.87%
same,XRPD result after slurry,[4]; Heptane,Form A*
same,XRPD result after slurry,[4]; IPAc,Form A*
same,XRPD result after slurry,[4]; Toluene,Form A*
same,XRPD result after slurry,"[5]; Acetone/heptane (1:4), 50° C., 1 day",Form A
same,XRPD result after slurry,"[5]; Acetone/heptane (1:4), room temperature, 4 days",Form A
same,XRPD result after slurry,"[5]; EtOAc, 50° C., 1 day",Form A
same,XRPD result after slurry,"[5]; Heptane, 50° C., 1 day",Form A
same,XRPD result after slurry,"[5]; IPAc, 50° C., 1 day",Form A
same,XRPD result after slurry,"[5]; Isobutanol, 50° C., 1 day",Form A
same,XRPD result after slurry,"[5]; Isobutanol, room temperature, three days (footnote *)",Form A*
same,XRPD result after slurry,"[5]; MTBE, 50° C., 1 day",Form A
same,XRPD result after slurry,"[5]; MTBE, room temperature, 4 days",Form A
same,XRPD result after slurry,"[5]; MeCN, 50° C., 1 day",Form A
same,XRPD result after slurry,"[5]; MeCN, room temperature, 4 days",Form A
same,XRPD result after slurry,"[5]; MeOH/water (1:4), 50° C., 1 day",mixture of the Form B of the hemi-fumarate salt of the compound of formula (I) (Form B) and the free base Form of the compound of formula (I) (FBF)
same,XRPD result after slurry,"[5]; Toluene, 50° C., 1 day",Form A
same,XRPD result after slurry,"[5]; Water, 50° C., 1 day",mixture of the Form B of the hemi-fumarate salt of the compound of formula (I) (Form B) and the free base Form of the compound of formula (I) (FBF)
same,Relative stability of hemi-fumarate Form A vs Form B,[6],more stable form
same,pH of the filtrate,"[7]; FaSSIF, 0.5 hours",6.39
same,pH of the filtrate,"[7]; FaSSIF, 2 hours",6.36
same,XRPD of the filter cake,[7]; FaSSIF,exhibited dissociation into the free base Form
same,XRPD of the filter cake,"[7]; FaSSIF, listed as Form A of the Hemi-Fumarate Salt",Changed
same,pH of the filtrate,"[7]; FaSSIF, 24 hours",5.57
same,pH of the filtrate,"[7]; FeSSIF, 0.5 hours",5.14
same,pH of the filtrate,"[7]; FeSSIF, 2 hours",4.88
same,XRPD of the filter cake,[7]; FeSSIF,exhibited dissociation into the free base Form
same,XRPD of the filter cake,"[7]; FeSSIF, listed as Form A of the Hemi-Fumarate Salt",Changed
same,pH of the filtrate,"[7]; FeSSIF, 24 hours",4.71
same,Solubility comparison between media,"[7]; SGF vs FeSSIF, FaSSIF and water","more soluble in SGF than in FeSSIF, FaSSIF, and water"
same,pH of the filtrate,"[7]; SGF, 0.5 hours",1.12
same,pH of the filtrate,"[7]; SGF, 2 hours",1.10
same,XRPD of the filter cake,[7]; SGF,No XRPD pattern change was observed
same,pH of the filtrate,"[7]; SGF, 24 hours",1.36
same,pH of the filtrate,"[7]; Water, 0.5 hours",3.77
same,pH of the filtrate,"[7]; Water, 2 hours",2.97
same,XRPD of the filter cake,[7]; Water,exhibited dissociation into the free base Form
same,XRPD of the filter cake,"[7]; Water, listed as Form A of the Hemi-Fumarate Salt",Changed
same,pH of the filtrate,"[7]; Water, 24 hours",2.91
same,solubility at 24 h,"[7]; pH 1.36, simulated gastric fluid, thermodynamic from solid, SGF, 24 hours",4370 µg/mL
same,solubility at 24 h,"[7]; pH 2.91, thermodynamic from solid, Water, 24 hours",81 µg/mL
same,solubility at 2 h,"[7]; pH 2.97, thermodynamic from solid, Water, 2 hours",81 µg/mL
same,solubility at 0.5 h,"[7]; pH 3.77, thermodynamic from solid, Water, 0.5 hours",10 µg/mL
same,solubility at 24 h,"[7]; pH 4.71, thermodynamic from solid, FeSSIF, 24 hours",41 µg/mL
same,solubility at 2 h,"[7]; pH 4.88, thermodynamic from solid, FeSSIF, 2 hours",149 µg/mL
same,solubility at 0.5 h,"[7]; pH 5.14, thermodynamic from solid, FeSSIF, 0.5 hours",214 µg/mL
same,solubility at 24 h,"[7]; pH 5.57, thermodynamic from solid, FaSSIF, 24 hours",29 µg/mL
same,solubility at 2 h,"[7]; pH 6.36, thermodynamic from solid, FaSSIF, 2 hours",16 µg/mL
same,solubility at 0.5 h,"[7]; pH 6.39, thermodynamic from solid, FaSSIF, 0.5 hours",22 µg/mL
same,solubility at 0.5 h,"[7]; simulated gastric fluid, thermodynamic from solid, SGF, 0.5 hours",4290 µg/mL
same,solubility at 2 h,"[7]; simulated gastric fluid, thermodynamic from solid, SGF, 2 hours",4230 µg/mL
same,solubility,"[8]; 2-butanone, organic solvent or mixture, thermodynamic from solid, 2-butanone, read-out: Solubility",> 27500 µg/mL
same,solubility,[8]; Acetone,>50000 µg/mL
same,solubility,"[8]; EtOAc, organic solvent or mixture, thermodynamic from solid, EtOAc, read-out: Solubility",> 9800 µg/mL
same,solubility,[8]; EtOH,>53400 µg/mL
same,solubility,"[8]; EtOH, organic solvent or mixture, thermodynamic from solid, EtOH, read-out: Solubility",> 50000 µg/mL
same,solubility,"[8]; IPA, organic solvent or mixture, thermodynamic from solid, IPA, read-out: Solubility",> 17800 µg/mL
same,solubility,"[8]; IPAc, organic solvent or mixture, thermodynamic from solid, IPAc, read-out: Solubility",> 2100 µg/mL
same,solubility,"[8]; MTBE, organic solvent or mixture, thermodynamic from solid, MTBE, read-out: Solubility",< 2200 µg/mL
same,solubility,"[8]; MeCN, organic solvent or mixture, thermodynamic from solid, MeCN, read-out: Solubility",> 3200 µg/mL
same,solubility,[8]; MeOH,>62200 µg/mL
same,solubility,"[8]; MeOH, organic solvent or mixture, thermodynamic from solid, MeOH, read-out: Solubility",> 50000 µg/mL
same,solubility,[8]; THF,>81800 µg/mL
same,solubility,"[8]; THF, organic solvent or mixture, thermodynamic from solid, THF, read-out: Solubility",> 50000 µg/mL
same,solubility,"[8]; acetone, organic solvent or mixture, thermodynamic from solid, Acetone, read-out: Solubility",> 50000 µg/mL
same,solubility,"[8]; heptane, organic solvent or mixture, thermodynamic from solid, Heptane, read-out: Solubility",< 630 µg/mL
same,solubility,"[8]; isobutanol, organic solvent or mixture, thermodynamic from solid, Isobutanol, read-out: Solubility",> 5800 µg/mL
same,solubility,"[8]; toluene, organic solvent or mixture, thermodynamic from solid, Toluene, read-out: Solubility",< 960 µg/mL
same,solubility,"[8]; water, thermodynamic from solid, Water, read-out: Solubility",< 830 µg/mL
